Experimental data published in the NIST ThermoML archive (doi:10.1016/j.jct.2007.11.002).
Numbers after ± are expanded uncertainties.

Assay: xn = mol fraction of the nth substance listed
Details: 101 kPa, Liquid; for viscosity: Capillary tube (Ostwald / Ubbelohde) method

CN1CCOCC1 [N-methylmorpholine] + Cc1ccccc1
Details	mass density, 298.15 K [kg/m3]	mass density, 303.15 K [kg/m3]	mass density, 313.15 K [kg/m3]	mass density, 323.15 K [kg/m3]	viscosity, 298.15 K [mPa·s]	viscosity, 303.15 K [mPa·s]	viscosity, 313.15 K [mPa·s]	viscosity, 323.15 K [mPa·s]
x2 = 0.0457	912.04 ± 1	907.63 ± 1	898.17 ± 1.1	879.98 ± 1.1	0.847 ± 0.011	0.839 ± 0.011	0.807 ± 0.011	0.795 ± 0.011
x2 = 0.1167	908.88 ± 0.99	904.69 ± 0.99	895.22 ± 1	877.67 ± 1	0.806 ± 0.011	0.798 ± 0.011	0.774 ± 0.01	0.759 ± 0.01
x2 = 0.1822	905.97 ± 0.95	901.78 ± 0.96	892.37 ± 0.97	875.42 ± 0.99	0.772 ± 0.01	0.765 ± 0.01	0.739 ± 0.01	0.723 ± 0.01
x2 = 0.2455	903.08 ± 0.92	898.89 ± 0.92	889.47 ± 0.93	873.11 ± 0.96	0.739 ± 0.01	0.732 ± 0.01	0.705 ± 0.01	0.687 ± 0.009
x2 = 0.2843	901.28 ± 0.9	897.11 ± 0.9	887.68 ± 0.91	871.67 ± 0.94	0.721 ± 0.01	0.712 ± 0.01	0.684 ± 0.009	0.665 ± 0.009
x2 = 0.3211	899.58 ± 0.88	895.42 ± 0.88	885.99 ± 0.9	870.33 ± 0.92	0.704 ± 0.009	0.692 ± 0.009	0.664 ± 0.009	0.643 ± 0.009
x2 = 0.3862	896.61 ± 0.85	892.43 ± 0.85	882.99 ± 0.87	867.93 ± 0.89	0.678 ± 0.009	0.664 ± 0.009	0.634 ± 0.009	0.612 ± 0.009
x2 = 0.4327	894.39 ± 0.83	890.21 ± 0.83	880.77 ± 0.85	866.14 ± 0.87	0.659 ± 0.009	0.645 ± 0.009	0.614 ± 0.009	0.59 ± 0.008
x2 = 0.4841	891.92 ± 0.8	887.74 ± 0.81	878.29 ± 0.83	864.14 ± 0.85	0.643 ± 0.009	0.627 ± 0.009	0.596 ± 0.008	0.57 ± 0.008
x2 = 0.5512	888.55 ± 0.78	884.36 ± 0.78	874.87 ± 0.8	861.34 ± 0.82	0.622 ± 0.008	0.606 ± 0.008	0.573 ± 0.008	0.546 ± 0.008
x2 = 0.5943	886.32 ± 0.76	882.15 ± 0.77	872.61 ± 0.79	859.47 ± 0.81	0.612 ± 0.008	0.594 ± 0.008	0.56 ± 0.008	0.531 ± 0.008
x2 = 0.6341	884.21 ± 0.75	880.05 ± 0.76	870.53 ± 0.77	857.79 ± 0.79	0.602 ± 0.008	0.586 ± 0.008	0.551 ± 0.008	0.521 ± 0.008
x2 = 0.6877	881.26 ± 0.73	877.11 ± 0.74	867.65 ± 0.75	855.41 ± 0.78	0.594 ± 0.008	0.575 ± 0.008	0.539 ± 0.008	0.507 ± 0.008
x2 = 0.7129	879.83 ± 0.72	875.68 ± 0.73	866.2 ± 0.75	854.17 ± 0.77	0.588 ± 0.008	0.571 ± 0.008	0.535 ± 0.008	0.503 ± 0.008
x2 = 0.7648	876.73 ± 0.71	872.59 ± 0.72	863.14 ± 0.73	851.63 ± 0.75	0.583 ± 0.008	0.561 ± 0.008	0.524 ± 0.008	0.488 ± 0.007
x2 = 0.7895	875.15 ± 0.7	871.01 ± 0.71	861.57 ± 0.73	850.28 ± 0.75	0.581 ± 0.008	0.559 ± 0.008	0.521 ± 0.008	0.487 ± 0.007
x2 = 0.8444	871.87 ± 0.69	867.75 ± 0.7	858.32 ± 0.71	847.56 ± 0.73	0.571 ± 0.008	0.549 ± 0.008	0.51 ± 0.007	0.474 ± 0.007
x2 = 0.8873	869.14 ± 0.68	865.03 ± 0.69	855.6 ± 0.7	845.26 ± 0.72	0.569 ± 0.008	0.543 ± 0.008	0.503 ± 0.007	0.458 ± 0.007
x2 = 0.9348	866.19 ± 0.67	862.08 ± 0.68	852.67 ± 0.7	842.77 ± 0.71	0.558 ± 0.008	0.536 ± 0.007	0.49 ± 0.007	0.444 ± 0.007
x2 = 0.9741	863.67 ± 0.66	859.57 ± 0.67	850.02 ± 0.69	840.51 ± 0.71	0.554 ± 0.007	0.527 ± 0.007	0.477 ± 0.007	0.429 ± 0.007

CN1CCOCC1 [N-methylmorpholine] + C1CCCCC1
Details	mass density, 298.15 K [kg/m3]	mass density, 303.15 K [kg/m3]	mass density, 313.15 K [kg/m3]	mass density, 323.15 K [kg/m3]	viscosity, 298.15 K [mPa·s]	viscosity, 303.15 K [mPa·s]	viscosity, 313.15 K [mPa·s]	viscosity, 323.15 K [mPa·s]
x2 = 0.0453	907.59 ± 1	902.83 ± 1	893.49 ± 1.1	874.42 ± 1.1	0.868 ± 0.012	0.854 ± 0.011	0.824 ± 0.011	0.802 ± 0.011
x2 = 0.1276	895.48 ± 1	890.66 ± 1	882.09 ± 1	863.12 ± 1	0.85 ± 0.011	0.838 ± 0.011	0.803 ± 0.011	0.778 ± 0.01
x2 = 0.1689	889.43 ± 0.98	884.59 ± 0.98	876.36 ± 0.99	857.48 ± 1	0.84 ± 0.011	0.828 ± 0.011	0.792 ± 0.01	0.764 ± 0.01
x2 = 0.2217	881.74 ± 0.96	876.96 ± 0.96	869.02 ± 0.97	850.4 ± 1	0.83 ± 0.011	0.814 ± 0.011	0.779 ± 0.01	0.75 ± 0.01
x2 = 0.2763	873.94 ± 0.94	869.13 ± 0.94	861.42 ± 0.95	843.13 ± 0.98	0.824 ± 0.01	0.804 ± 0.01	0.765 ± 0.01	0.732 ± 0.01
x2 = 0.3217	867.42 ± 0.92	862.66 ± 0.93	855.1 ± 0.94	837.1 ± 0.96	0.821 ± 0.01	0.797 ± 0.01	0.755 ± 0.01	0.718 ± 0.01
x2 = 0.3873	857.99 ± 0.9	853.23 ± 0.91	845.94 ± 0.92	828.33 ± 0.95	0.819 ± 0.01	0.791 ± 0.01	0.742 ± 0.01	0.701 ± 0.009
x2 = 0.4326	851.46 ± 0.89	846.82 ± 0.9	839.61 ± 0.91	822.36 ± 0.94	0.819 ± 0.01	0.786 ± 0.01	0.736 ± 0.009	0.691 ± 0.009
x2 = 0.4833	844.29 ± 0.88	839.67 ± 0.89	832.51 ± 0.9	815.69 ± 0.93	0.821 ± 0.01	0.784 ± 0.01	0.729 ± 0.009	0.681 ± 0.009
x2 = 0.5218	838.78 ± 0.87	834.2 ± 0.88	827.11 ± 0.89	810.59 ± 0.92	0.824 ± 0.01	0.784 ± 0.01	0.726 ± 0.009	0.673 ± 0.009
x2 = 0.5844	829.95 ± 0.86	825.42 ± 0.87	818.32 ± 0.88	802.4 ± 0.91	–	0.785 ± 0.009	0.721 ± 0.009	0.665 ± 0.009
x2 = 0.5943	–	–	–	–	0.829 ± 0.01	–	–	–
x2 = 0.6328	823.16 ± 0.85	818.66 ± 0.86	811.52 ± 0.87	796.08 ± 0.9	–	0.786 ± 0.009	0.719 ± 0.009	0.659 ± 0.009
x2 = 0.6341	–	–	–	–	0.835 ± 0.01	–	–	–
x2 = 0.6877	–	–	–	–	0.842 ± 0.01	–	–	–
x2 = 0.6911	815.03 ± 0.85	810.51 ± 0.86	803.31 ± 0.87	788.47 ± 0.9	–	0.789 ± 0.009	0.717 ± 0.009	0.653 ± 0.008
x2 = 0.7129	–	–	–	–	0.847 ± 0.009	–	–	–
x2 = 0.7428	807.87 ± 0.84	803.38 ± 0.85	796.01 ± 0.86	781.8 ± 0.89	–	0.79 ± 0.009	0.714 ± 0.009	0.646 ± 0.008
x2 = 0.7648	–	–	–	–	0.855 ± 0.009	–	–	–
x2 = 0.7895	–	–	–	–	0.861 ± 0.009	–	–	–
x2 = 0.7944	800.77 ± 0.84	796.31 ± 0.85	788.72 ± 0.86	775.2 ± 0.89	–	0.794 ± 0.009	0.71 ± 0.009	0.638 ± 0.008
x2 = 0.8392	794.64 ± 0.84	790.27 ± 0.85	782.38 ± 0.86	769.54 ± 0.89	–	0.797 ± 0.009	0.708 ± 0.008	0.631 ± 0.008
x2 = 0.8444	–	–	–	–	0.868 ± 0.009	–	–	–
x2 = 0.8643	791.35 ± 0.84	786.94 ± 0.84	778.83 ± 0.86	766.42 ± 0.89	–	0.797 ± 0.009	0.706 ± 0.008	0.626 ± 0.008
x2 = 0.8873	–	–	–	–	0.875 ± 0.009	–	–	–
x2 = 0.9033	786.15 ± 0.84	781.75 ± 0.84	773.3 ± 0.86	761.57 ± 0.88	–	0.801 ± 0.009	0.704 ± 0.008	0.619 ± 0.008
x2 = 0.9348	–	–	–	–	0.889 ± 0.009	–	–	–
x2 = 0.9532	779.63 ± 0.84	775.19 ± 0.84	766.22 ± 0.86	755.42 ± 0.88	–	0.805 ± 0.009	0.7 ± 0.008	0.611 ± 0.008
x2 = 0.9741	–	–	–	–	0.898 ± 0.009	–	–	–
x2 = 0.9823	775.75 ± 0.84	771.51 ± 0.84	762.08 ± 0.86	751.98 ± 0.88	–	0.805 ± 0.009	0.698 ± 0.008	0.607 ± 0.008
